Counter-ions that a name gives are not always drawn. Marks after values point to notes of the source that are not given here.
Key:
[1] = system: adenosine A1 and A2 receptors; settings: selectivity A1 over A2; cited from earlier work
I1 imidazoline receptor = settings: comparison within marsanidine, 7-Me-, 7-Cl-, 7-F-marsanidine; cited from earlier work
α2-adrenoreceptors = settings: comparison within marsanidine, 7-Me-, 7-Cl-, 7-F-marsanidine; cited from earlier work
[2] = system: Npas2-LacZ expression of mouse BMSC; experiment: High throughput screening of LOPAC 1280 compounds for Npas2-LacZ expression (Beta-Glo β-galactosidase assay); format: cell-based; settings: compound 1 μM, 48 hours, BMSC from Npas2−/− mice carrying LacZ reporter
Description: Femur BMSC harvested from Npas2−/− mice were previously characterized for LacZ expression, which was used in this study for high throughput, unbiased screening of Library of Pharmacologically Active Compounds (LOPAC®^1280). (Hassan, N., et al., (2017) PLoS One 12, e0183359). Using 384-well plates, each well was filled with 25 μl non-phenol red DMEM containing 10% FBS and 1% PS, and added 50 nL of LOPAC®^1280 compound (final concentration: 1 μM) using 500 nL pin tool (Biomek FX, Beckman Coulter, Indianapolis, Ind.). To each well, BMSC (Npas2-LacZ) were placed as 1500 cells/25 μl suspension and incubated at room temperature for 1 hour, followed by incubation at 37° C. and 5% CO2 for 48 hours. To measure Npas2-LacZ expression, β-galactosidase activity was measured using a commercially available assay (Beta-Glo Assay System, Promega, Summerville, Calif.).
The Npas2-LacZ expression data were uploaded on an online data analysis tool (CDD Vault, Collaborative Drug Discovery, Inc, Burlingame, Calif.), on which data were normalized and Z-factor was calculated. For this study, hit compounds were selected as Z-score >2.5 or <−2.5.

[3] = system: implant osseointegration in mouse femur; experiment: Implant push-out test of Ti implants placed in mouse femur; format: in vivo; settings: 75 mg/Kg daily IP for 2 weeks, machined or B-DAE-DCD surface implants, vs vehicle 0.9% NaCl
Description: Male 10˜15-wk-old C57Bl/6J mice underwent surgical placement of Ti implants. After anesthesia with isoflurane inhalation, the distal femur was accessed via medial parapatellar arthrotomy with lateral displacement of the quadriceps-patellar complex. After locating the femoral intercondylar notch, the femoral intramedullary canal was manually reamed with a 25-gauge needle for entry into the canal and further reamed with a 23-gauge needle. A Ti implant was inserted in a retrograde fashion into each femur of a mouse. The Ti implant was clipped at 4 mm and further inserted 4 mm using a periodontal probe. The quadriceps-patellar complex was reduced to its anatomic position, and the surgical site was closed using Vicryl 5-0 sutures. Carprofen (5.0 mg/kg) (Rimadyl, Zoetis US, Parsippany, N.J.) was administered subcutaneously at the time of surgery and every 24 hours for 2 days after surgery.
Mice were euthanized and femur bones were harvested at the predetermined healing time. […] The mechanical withholding strength was measured by pushing the implant out from the femur bone marrow using a custom-made stainless-steel pushing rod mounted on a 1000-N load cell (Instron, Canton, Mass.). The axial load on the implant was applied at a cross-head speed of 1 mm/min, and displacement of the implant and the load were recorded. […]

Row | SMILES | affinity for the I1 imidazoline receptor (rank among marsanidine analogs) (I1 imidazoline receptor) | affinity for α2-adrenoreceptors (rank among marsanidine analogs) (α2-adrenoreceptors) | % Activity (activity against negative controls in LOPAC 1280 screening) [2] | further results
1 | CCCn1c(=O)c2[nH]c(-c3ccccc3)nc2n(CCC)c1=O [1,3-dipropyl-8-phenylxanthine] |  |  |  | fold more potent at A1 receptors than at A2 receptors [1]: about 23 fold
2 | Clc1cccc2cnn(N=C3NCCN3)c12 [7-Cl-marsanidine] | lower affinity for the I1 imidazoline receptor | higher affinity for α2-adrenoreceptors |  | 
3 | Fc1cccc2cnn(N=C3NCCN3)c12 [7-F-marsanidine] | higher affinity for the I1 imidazoline receptor than 7-Cl-marsanidine | comparable affinity for α2-adrenoreceptors |  | 
4 | Cc1cccc2cnn(N=C3NCCN3)c12 [7-Me-marsanidine] | highest affinity for the I1 imidazoline receptor | low affinity for α2-adrenoreceptors |  | 
5 | CCCn1c(=O)c2[nH]c(-c3ccc(Cl)cc3N)nc2n(CCC)c1=O [8-(2-amino-4-chlorophenyl)-1,3-dipropylxanthine] |  |  |  | fold more potent at A1 receptors than at A2 receptors [1]: ~400 fold
6 | Cn1c(=O)c2[nH]c(-c3ccc(S(=O)(=O)O)cc3)nc2n(C)c1=O [8-(p-Sulfophenyl)-theophylline, 8-(p-sulfophenyl) theophylline] |  |  | 104.0% | 
7 | O=C1CCc2cc(OCCCCc3nnnn3C3CCCCC3)ccc2N1 [Cilostazol (MS-1505230), 6-[4-(1-cyclohexyl-1H-tetrazol-5-yl)-butoxy]-3,4-dihydro-2(1H)-quinolinone] |  |  | 26.2% | 
8 | Cc1nccc2c1[nH]c1ccccc12 [Harmane (MS-1500866), 1-Methyl-9H-pyrido[3,4-b]indole] |  |  | −15.6** % | 
9 | C[C@](N)(Cc1ccc(O)c(O)c1)C(=O)O [Methyldopa (L, −), L-α-Methyl-3,4-dihydroxyphenylalanine] |  |  | 18.1% | implant push-out value [3]: greater push-out value than vehicle treated control mice
10 | CC[C@@H](CO)NC(=O)[C@@H]1C=C2c3cccc4c3c(cn4C)C[C@H]2N(C)C1 [Methysergide maleate, 1-methyl-D-lysergic acid butanolamide] |  |  | 28.6% | 
11 | O=c1ccc2c(OCCCCc3ccccc3)c3ccoc3cc2o1 [Psora-4, 5-(4-phenylbutoxy)psoralen] |  |  | 35.3% | 
12 | c1ccc2c(c1)cnn2N=C1NCCN1 [marsanidine] | lowest affinity for the I1 imidazoline receptor | highest affinity for α2-adrenoreceptors |  | 

— US20210393857A1, “SMALL MOLECULE DRUGS AND METHODS TO ACCELERATE OSSEOINTEGRATION” (The Regents of the University of California, priority 2018, published 2021)
